Measured values: US20170334899A1, “AMINO-SUBSTITUTED ISOTHIAZOLES” (Bayer Pharma Aktiengesellschaft, priority 2014, published 2017)
pIC50: −log10 of the molar value.

tested on: HeLa; assay: Proliferation assay (crystal violet), HeLa; type: cell-based; conditions: HeLa cells; 4 days incubation; crystal violet staining; read-out: IC50 inhibition of proliferation, HeLa
Method in brief: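 Four-day compound exposure (0.001-10 μM, 0.5% DMSO final) began 24 h after seeding 1000-5000 cells/well in medium with 10% fetal calf serum. Cell number read by crystal violet absorbance at 595 nm, scaled between day-zero plate and untreated control; 4-parameter fit gave IC50.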

Row | pIC50 | SMILES
1 | 6.08 | Cc1nsc(Nc2cnc(C(F)(F)F)cn2)c1C(=O)Nc1ccc(F)c(OCC2CCCN(CC(F)F)C2)c1 (stereo not drawn) [Example 335, N-(3-{[1-(2,2-difluoroethyl)piperidin-3-yl]methoxy}-4-fluorophenyl)-3-methyl-5-{[5-(trifluoromethyl)pyrazin-2-yl]amino}-1,2-thiazole-4-carboxamide]

same assay, conditions: Homo sapiens, HeLa, 96 h, HeLa cells; 4 days incubation; crystal violet staining; read-out: IC50 inhibition of proliferation, HeLa

Row | pIC50 | SMILES
2 | 5.00 | Cc1nsc(Nc2cnc3ccccc3n2)c1C(=O)Nc1cccc(C(=O)N2CCN(C)CC2)c1 [Example 102, 3-Methyl-N-{3-[(4-methylpiperazin-1-yl)carbonyl]phenyl}-5-(quinoxalin-2-ylamino)-1,2-thiazole-4-carboxamide]
3 | 5.00 | Cc1nsc(Nc2cnc3ccccc3n2)c1C(=O)Nc1cccc(C(=O)N2CCCC2)c1 [Example 113, 3-Methyl-N-[3-(pyrrolidin-1-ylcarbonyl)phenyl]-5-(quinoxalin-2-ylamino)-1,2-thiazole-4-carboxamide]
4 | 5.00 | Cc1nsc(Nc2cnc3ccccc3n2)c1C(=O)Nc1cccc(C(=O)NCC(=O)O)c1 [Example 99, N-[3-({[3-Methyl-5-(quinoxalin-2-ylamino)-1,2-thiazol-4-yl]carbonyl}amino)benzoy]-glycine]

The next lines start with the compound.

Row | SMILES | pIC50
5 | Cc1nsc(Nc2cnc(C(F)(F)F)cn2)c1C(=O)Nc1ccc(OC2CCNCC2)nc1 [Example 6, 3-Methyl-N-[6-(piperidin-4-yloxy)pyridin-3-yl]-5-{[5-(trifluoromethyl)pyrazin-2-yl]amino}-1,2-thiazole-4-carboxamide] | 5.00
6 | Cc1nsc(Nc2cnc(C(F)(F)F)cn2)c1C(=O)Nc1ccc(OCC2CCN(CCC(F)(F)F)C2)nc1 (stereo not drawn) [Example 124, 3-methyl-5-{[5-(trifluoromethyl)pyrazin-2-yl]amino}-N-(6-{[1-(3,3,3-trifluoropropyl)pyrrolidin-3-yl]methoxy}pyridin-3-yl)-1,2-thiazole-4-carboxamide] | 6.44
